Results as given in US6355799B1, “Substituted benzene compounds, process for their preparation, and herbicidal and defoliant compositions containing them” (ISK Americas Incorporated, priority 1997, dated 2002).

Tests used:
Type in all cases: in vivo
[1] = system: redroot pigweed (Amaranthus retroflexus, AMARE); assay: Pre-emerge test, greenhouse herbicide activity screening; settings: rating scale 0-100, 14 days after application
In short: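 Herbicidal damage is scored 0 (none) to 100 (complete plant death) two weeks after a simulated field spray. Rates span 15–1000 g ai/ha, delivered in acetone at 187 l/ha. For post-emergence treatments, plants have 2–3 leaves and the spray carries 0.25% v/v non-ionic surfactant.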

[2] = system: barnyardgrass (Echinochloa crus-galli, ECHCG); assay: as above; settings: rating scale 0-100, 14 days after application
In short: (§1)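 Rating: 0–100 visual injury, 14 DAA. Application: acetone, 187 l/ha, 15–1000 g ai/ha, flat-fan track sprayer with nozzle 40–45 cm above soil or canopy. Post-emerge runs used 0.25% v/v surfactant on 2–3 leaf plants.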

[3] = system: common ragweed (Ambrosia artemisizfolia L., AMBEL); assay: as above; settings: rating scale 0-100, 14 days after application
In short: as §1

[4] = system: green foxtail (Setaria viridis, SETVI); assay: as above; settings: rating scale 0-100, 14 days after application
In short: as §1

[5] = system: ivyleaf morningglory (Ipomoea hederacea, IPOHE); assay: as above; settings: rating scale 0-100, 14 days after application
In short: as §1

[6] = system: johnsongrass (Sorghum halepense, SORHA); assay: as above; settings: rating scale 0-100, 14 days after application
In short: as §1

[7] = system: lambsquarters (Chenopodium album, CHEAL); assay: as above; settings: rating scale 0-100, 14 days after application
In short: as §1

[8] = system: large crabgrass (Digitaria sanguinalis, DIGSA); assay: as above; settings: rating scale 0-100, 14 days after application
In short: as §1

[9] = system: sicklepod (Cassia obtusifolia, CASOB); assay: as above; settings: rating scale 0-100, 14 days after application
In short: as §1

[10] = system: velvetleaf (Abutilon theophrasti, ABUTH); assay: as above; settings: rating scale 0-100, 14 days after application
In short: as §1

[11] = system: field corn (Zea mays L., var. Dekalb 535, CORN); assay: Pre-emerge test, crop safety; settings: rating scale 0-100, 14 days after application
In short: (§2)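 Visual ratings on a 0-100 scale (0 no damage, 100 all plants dead) were taken at 14 days after treatment. Rates of 15-1000 g ai/ha in acetone, 187 l/ha, were sprayed onto soil one day after planting (pre-emerge) or onto 2-3 leaf plants with 0.25% v/v surfactant (post-emerge).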

[12] = system: upland rice (Oryza sp., var. Tebonnet, RICE); assay: Pre-emerge test, crop safety; settings: rating scale 0-100, 14 days after application
In short: as §2

[13] = system: barnyardgrass (Echinochloa crus-galli, ECHCG); assay: Post-emerge test, greenhouse herbicide activity screening; settings: rating scale 0-100 (0 no damage, 100 complete death), 14 days after application
In short: (§3)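 Each test used a mechanized track sprayer delivering 187 l/ha of acetone solution at 15–1000 g ai/ha. Post-emerge foliage at 2–3 leaves was treated with added 0.25% v/v non-ionic surfactant and bottom-watered only. Injury was assessed on day 14, where 100 means total kill.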

[14] = system: common ragweed (Ambrosia artemisizfolia L., AMBEL); assay: as above; settings: rating scale 0-100 (0 no damage, 100 complete death), 14 days after application
In short: as §3

[15] = system: green foxtail (Setaria viridis, SETVI); assay: as above; settings: rating scale 0-100 (0 no damage, 100 complete death), 14 days after application
In short: as §3

[16] = system: ivyleaf morningglory (Ipomoea hederacea, IPOHE); assay: as above; settings: rating scale 0-100 (0 no damage, 100 complete death), 14 days after application
In short: as §3

[17] = system: lambsquarters (Chenopodium album, CHEAL); assay: as above; settings: rating scale 0-100 (0 no damage, 100 complete death), 14 days after application
In short: as §3

[18] = system: large crabgrass (Digitaria sanguinalis, DIGSA); assay: as above; settings: rating scale 0-100 (0 no damage, 100 complete death), 14 days after application
In short: as §3

[19] = system: redroot pigweed (Amaranthus retroflexus, AMARE); assay: as above; settings: rating scale 0-100 (0 no damage, 100 complete death), 14 days after application
In short: as §3

[20] = system: sicklepod (Cassia obtusifolia, CASOB); assay: as above; settings: rating scale 0-100 (0 no damage, 100 complete death), 14 days after application
In short: as §3

[21] = system: velvetleaf (Abutilon theophrasti, ABUTH); assay: as above; settings: rating scale 0-100 (0 no damage, 100 complete death), 14 days after application
In short: as §3

[22] = system: field corn (Zea mays L., var. Dekalb 535, CORN); assay: Post-emerge test, crop safety; settings: rating scale 0-100 (0 no damage, 100 complete death), 14 days after application
In short: (§4)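 Plants grown in 10 cm pots of sandy loam mix received acetone-dissolved compounds through a moving flat-fan nozzle. Doses ranged from 15 to 1000 g ai/ha. Pre-emerge pots were seeded one day earlier, post-emerge pots 8–21 days earlier. Fourteen days on, each pot was graded 0–100 for damage.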

[23] = system: upland rice (Oryza sp., var. Tebonnet, RICE); assay: Post-emerge test, crop safety; settings: rating scale 0-100 (0 no damage, 100 complete death), 14 days after application
In short: as §4

CCCCOC(=O)C(Cl)Cc1c(OC)c(Cl)cc(F)c1-n1c(=O)cc(C(F)(F)F)n(C)c1=O (single isomer, unassigned) [14-9]
Pre-emerge herbicidal activity, phytotoxicity rating AMARE ([1]; 63 g ai/ha): 80 | Pre-emerge herbicidal activity, phytotoxicity rating AMARE ([1]; 250 g ai/ha): 100 | Pre-emerge herbicidal activity, phytotoxicity rating ECHCG ([2]; 63 g ai/ha): 0 | Pre-emerge herbicidal activity, phytotoxicity rating ECHCG ([2]; 250 g ai/ha): 70 | Pre-emerge herbicidal activity, phytotoxicity rating AMBEL ([3]; 63 g ai/ha): 0 | Pre-emerge herbicidal activity, phytotoxicity rating AMBEL ([3]; 250 g ai/ha): 0 | Pre-emerge herbicidal activity, phytotoxicity rating SETVI ([4]; 63 g ai/ha): 0 | Pre-emerge herbicidal activity, phytotoxicity rating SETVI ([4]; 250 g ai/ha): 20 | Pre-emerge herbicidal activity, phytotoxicity rating IPOHE ([5]; 63 g ai/ha): 0 | Pre-emerge herbicidal activity, phytotoxicity rating IPOHE ([5]; 250 g ai/ha): 0 | Pre-emerge herbicidal activity, phytotoxicity rating SORHA ([6]; 63 g ai/ha): 0 | Pre-emerge herbicidal activity, phytotoxicity rating SORHA ([6]; 250 g ai/ha): 30 | Pre-emerge herbicidal activity, phytotoxicity rating CHEAL ([7]; 63 g ai/ha): 60 | Pre-emerge herbicidal activity, phytotoxicity rating CHEAL ([7]; 250 g ai/ha): 90 | Pre-emerge herbicidal activity, phytotoxicity rating DIGSA ([8]; 63 g ai/ha): 90 | Pre-emerge herbicidal activity, phytotoxicity rating DIGSA ([8]; 250 g ai/ha): 100 | Pre-emerge herbicidal activity, phytotoxicity rating CASOB ([9]; 63 g ai/ha): 0 | Pre-emerge herbicidal activity, phytotoxicity rating CASOB ([9]; 250 g ai/ha): 0 | Pre-emerge herbicidal activity, phytotoxicity rating ABUTH ([10]; 63 g ai/ha): 0 | Pre-emerge herbicidal activity, phytotoxicity rating ABUTH ([10]; 250 g ai/ha): 90 | Pre-emerge phytotoxicity rating, crop damage CORN ([11]; 63 g ai/ha): 0 | Pre-emerge phytotoxicity rating, crop damage CORN ([11]; 250 g ai/ha): 75 | Pre-emerge phytotoxicity rating, crop damage RICE ([12]; 63 g ai/ha): 0 | Pre-emerge phytotoxicity rating, crop damage RICE ([12]; 250 g ai/ha): 5 | Post-emerge Herbicidal Activity, phytotoxicity rating ECHCG ([13]; Rate 63 g ai/ha): 98 | Post-emerge Herbicidal Activity, phytotoxicity rating ECHCG ([13]; Rate 250 g ai/ha): 100 | Post-emerge Herbicidal Activity, phytotoxicity rating AMBEL ([14]; Rate 63 g ai/ha): 10 | Post-emerge Herbicidal Activity, phytotoxicity rating AMBEL ([14]; Rate 250 g ai/ha): 70 | Post-emerge Herbicidal Activity, phytotoxicity rating SETVI ([15]; Rate 63 g ai/ha): 30 | Post-emerge Herbicidal Activity, phytotoxicity rating SETVI ([15]; Rate 250 g ai/ha): 60 | Post-emerge Herbicidal Activity, phytotoxicity rating IPOHE ([16]; Rate 63 g ai/ha): 0 | Post-emerge Herbicidal Activity, phytotoxicity rating IPOHE ([16]; Rate 250 g ai/ha): 80 | Post-emerge Herbicidal Activity, phytotoxicity rating CHEAL ([17]; Rate 63 g ai/ha): 60 | Post-emerge Herbicidal Activity, phytotoxicity rating CHEAL ([17]; Rate 250 g ai/ha): 99 | Post-emerge Herbicidal Activity, phytotoxicity rating DIGSA ([18]; Rate 63 g ai/ha): 75 | Post-emerge Herbicidal Activity, phytotoxicity rating DIGSA ([18]; Rate 250 g ai/ha): 75 | Post-emerge Herbicidal Activity, phytotoxicity rating AMARE ([19]; Rate 63 g ai/ha): 90 | Post-emerge Herbicidal Activity, phytotoxicity rating AMARE ([19]; Rate 250 g ai/ha): 99 | Post-emerge Herbicidal Activity, phytotoxicity rating CASOB ([20]; Rate 63 g ai/ha): 0 | Post-emerge Herbicidal Activity, phytotoxicity rating CASOB ([20]; Rate 250 g ai/ha): 0 | Post-emerge Herbicidal Activity, phytotoxicity rating ABUTH ([21]; Rate 63 g ai/ha): 70 | Post-emerge Herbicidal Activity, phytotoxicity rating ABUTH ([21]; Rate 250 g ai/ha): 100 | Post-emerge phytotoxicity rating CORN (crop damage) ([22]; Rate 63 g ai/ha): 70 | Post-emerge phytotoxicity rating CORN (crop damage) ([22]; Rate 250 g ai/ha): 99 | Post-emerge phytotoxicity rating RICE (crop damage) ([23]; Rate 63 g ai/ha): 5 | Post-emerge phytotoxicity rating RICE (crop damage) ([23]; Rate 250 g ai/ha): 20
